Source: patent US8394950B2, “Analogues of coformycin and their use for treating protozoan parasite infections” (Industrial Research Limited, priority 2006, dated 2013)
Like-named read-outs stand apart in the source and are kept apart here.

Assays:
HsADA = target: T1, HsADA (Homo sapiens, UniProt P00813); test: Inhibition of human adenosine deaminase (adenosine to inosine, absorbance change); format: biochemical
T1 construct: Human adenosine deaminase from human erythrocytes; purchased Sigma-Aldrich Chemical Company; host or cells: human erythrocytes
T1 sequence (P00813 1-363): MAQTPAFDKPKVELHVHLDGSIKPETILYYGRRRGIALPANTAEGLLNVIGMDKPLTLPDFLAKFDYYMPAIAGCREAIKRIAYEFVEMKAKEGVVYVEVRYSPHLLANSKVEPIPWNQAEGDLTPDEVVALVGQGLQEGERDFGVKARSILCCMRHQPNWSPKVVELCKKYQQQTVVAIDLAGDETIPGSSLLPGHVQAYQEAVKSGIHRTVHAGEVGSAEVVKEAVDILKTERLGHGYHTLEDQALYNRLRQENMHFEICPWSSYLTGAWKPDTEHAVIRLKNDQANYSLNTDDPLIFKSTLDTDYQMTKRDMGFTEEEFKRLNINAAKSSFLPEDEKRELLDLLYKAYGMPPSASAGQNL
Protocol: (§1) Inhibition studies measured both initial and slow-onset rates to establish both the initial dissociation constant (Ki) and the steady-state dissociation constant (Ki*) as previously described [Kicska, G. A., Tyler, P. C., Evans, G. B., Furneaux, R. H., Kim, K., and Schramm, V. L. (2002) J Biol Chem 277, 3219-3225.]. Kd is the lower of these values.
(§2) Concentrations of inhibitors were determined spectrophotometrically using the extinction coefficient of 8250 M^−1cm^−1 at 282 nm.
(§3) (V. L. Schramm, D. C. Baker, Biochemistry, 1985, 24, 641-646). Inhibitor concentrations ranging from 10 μM to 2 nM were used for determination of the inhibition constants and an enzyme concentration of 1 nM. The Ki values were determined by fitting the initial rate and inhibitor concentrations to the following expression of competitive inhibition: (V′o/Vo)=(KM+[S])/(KM+[S]+(KM[I]/Ki)) where V′o is the initial rate in the presence of inhibitor, and Vo is the initial rate in the absence of inhibitor, [I] is the inhibitor concentration, and [S] is the substrate concentration.

PfADA = target: T2, PfADA (Plasmodium falciparum, UniProt Q8IJA9); test: biochemical; format: biochemical
T2 sequence (Q8IJA9 1-367): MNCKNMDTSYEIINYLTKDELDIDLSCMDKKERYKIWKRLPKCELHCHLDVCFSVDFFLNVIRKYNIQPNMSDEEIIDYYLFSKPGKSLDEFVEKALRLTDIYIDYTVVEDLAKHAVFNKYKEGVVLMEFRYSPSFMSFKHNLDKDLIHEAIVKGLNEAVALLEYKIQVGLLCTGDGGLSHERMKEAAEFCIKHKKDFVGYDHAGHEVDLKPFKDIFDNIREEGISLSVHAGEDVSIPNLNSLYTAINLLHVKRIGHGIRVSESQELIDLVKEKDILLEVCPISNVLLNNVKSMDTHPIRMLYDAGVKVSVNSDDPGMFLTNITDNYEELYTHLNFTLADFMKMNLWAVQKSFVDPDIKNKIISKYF
Protocol: as §1, §2, §3

BtADA = target: T3, BtADA (Bos taurus, UniProt P56658); test: Inhibition of bovine adenosine deaminase (adenosine to inosine, absorbance change); format: biochemical
T3 construct: bovine adenosine deaminase from bovine spleen; purchased Sigma-Aldrich Chemical Company; host or cells: bovine spleen
T3 sequence (P56658 1-363): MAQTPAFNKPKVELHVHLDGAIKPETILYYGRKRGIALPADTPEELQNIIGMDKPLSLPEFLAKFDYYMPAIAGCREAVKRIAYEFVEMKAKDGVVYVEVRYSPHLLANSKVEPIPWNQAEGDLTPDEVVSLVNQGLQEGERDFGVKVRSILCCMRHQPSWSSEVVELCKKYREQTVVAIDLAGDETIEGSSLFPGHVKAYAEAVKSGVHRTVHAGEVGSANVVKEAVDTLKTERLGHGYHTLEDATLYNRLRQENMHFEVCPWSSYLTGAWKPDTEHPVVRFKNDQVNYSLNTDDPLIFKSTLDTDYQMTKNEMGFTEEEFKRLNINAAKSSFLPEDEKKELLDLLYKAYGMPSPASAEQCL
Protocol: as §1, §2, §3

P. falciparum [1] = settings: cited from earlier work; for killing of P. falciparum in culture (in words): in culture / growing in human erythrocytes
P. falciparum [2] = test: Visual inspection of parasitemia in infected red blood cells after 48 hours; format: cell-based; settings: for parasitemia after 48 hours: 1% parasitemia initially
[3] = in vivo; cited from earlier work
Plasmodium knowlesi = settings: single dose, primates with Plasmodium knowlesi; cited from earlier work
P. falciparum strain 3D7 = test: P. falciparum culture kill curves, uptake of tritiated ethanolamine in red blood cells; format: cell-based; settings: for IC50: read-out: IC50, prevention of growth of P. falciparum (uptake of tritiated ethanolamine)
Protocol: Human erythrocytes were collected from local volunteers under protocol CCI 00-31 or CCI 99-240 of the Albert Einstein College of Medicine. Cultures of P. falciparum strain 3D7 were grown in RPMI supplemented with 0.5% Albumax II (Invitrogen) and were sorbitol-synchronized twice before initiation of the 72 hour assay in 96-well plates with a total volume of 200 μL at 1% hematocrit and 0.8% parasitemia (100% rings). […] Drugs were dissolved in water and diluted with media prior to addition to cultures. […] After 54 h, cell cultures were frozen and thawed to disrupt cells, and the mixtures were harvested on glass fiber filters. Filters were counted in a Winspectral 1414 scintillation counter. Experiments were done twice with six replicate wells for each experiment. Individual data points more than two standard deviations from the mean were discarded. For some experiments, parasitemias were counted on Giemsa-stained smears of cultures treated in parallel.

[4] = initial dissociation constant, 100 μM adenosine, pH 7.0, 30° C., read-out: PfADA Ki
[5] = no detectible slow onset, read-out: dissociation constants (PfADA)
[6] = methylthioadenosine (100 μM) alone
[7] = methylthioadenosine (100 μM) plus compound (10 μM)

CSC[C@H]1O[C@@H](n2cnc3c2N=CNC[C@H]3O)C[C@@H]1O [5′-MeS-2′-deoxycoformycin (16), (8R)-3-(2′-deoxy-5′-methylthio-β,D-erythro-pentofuranosyl)-8-hydroxy-3,6,7,8-tetrahydroimidazo[4,5-d][1,3]diazepine]
Ki (HsADA; read-out: HsADA Ki): > 10000 nM | Ki (PfADA; [4]): 2.3 ± 0.8 nM | Ki (PfADA; slow onset equilibrium dissociation constant, read-out: PfADA Ki^a): 0.73 ± 0.22 nM | Ki (BtADA; read-out: BtADA Ki): > 10000 nM

O=c1[nH]cnc2c([C@@H]3N[C@H](CO)[C@@H](O)[C@H]3O)c[nH]c12 [Immucillin-H]
time to purine-less death (P. falciparum [1]; P. falciparum-infected erythrocytes, simultaneous inhibition of host and parasite PNP): ≤ 24 h

O[C@@H]1CNC=Nc2c1ncn2[C@H]1C[C@H](O)[C@@H](CSc2ccccc2)O1 [5′-PhS-2′-deoxycoformycin (18), (8R)-3-(2′-deoxy-5′-phenylthio-β,D-erythro-pentofuranosyl)-8-hydroxy-3,6,7,8-tetrahydroimidazo[4,5-d][1,3]diazepine]
inhibition of PfADA (in words) (PfADA): no detectible slow onset | Ki (PfADA; [4]): 61 ± 11 nM | Ki (PfADA; [5]): 61 nM | Ki (BtADA; read-out: BtADA Ki): > 10000 nM

CSC[C@H]1N[C@@H](c2c[nH]c3c(=O)[nH]cnc23)[C@H](O)[C@@H]1O [5′-Methylthio-Immucillin-H]
killing of P. falciparum in culture (in words) (P. falciparum [1]): able to kill P. falciparum growing in human erythrocytes | killing of P. falciparum in culture (in words) (P. falciparum [1]; listed as 5′-methylthio-Immucillin-H): kill P. falciparum in culture

5′-methylthioadenosine
parasitemia after 48 hours (P. falciparum [2]; [6]): 8% | parasites in the ring form after 48 hours (P. falciparum [2]; [6]): 97%

CCCSC[C@H]1O[C@@H](n2cnc3c2N=CNC[C@H]3O)C[C@@H]1O [5′-PrS-2′-deoxycoformycin (17), (8R)-3-(2′-deoxy-5′-propylthio-β,D-erythro-pentofuranosyl)-8-hydroxy-3,6,7,8-tetrahydroimidazo[4,5-d][1,3]diazepine]
Ki (HsADA; read-out: HsADA Ki): > 10000 nM | inhibition of PfADA (in words) (PfADA): no detectible slow onset | Ki (PfADA; [4]): 12 ± 1 nM | Ki (PfADA; [5]): 12 nM | Ki (BtADA; read-out: BtADA Ki): > 10000 nM

OC[C@H]1O[C@@H](n2cnc3c2NC=NC[C@H]3O)C[C@@H]1O [2′-deoxycoformycin]
toxicity in mammals (in words) [3]: highly toxic | effect on parasitemia (in words) (Plasmodium knowlesi): dramatically reduced parasitemia

OC[C@H]1O[C@@H](n2cnc3c2N=CNC[C@H]3O)[C@H](O)[C@@H]1O [Coformycin]
Ki (HsADA; HsADA Ki (nM), initial dissociation constant, 100 μM adenosine, pH 7.0, 30° C., >10,000 = no inhibition at 10 μM): 13.9 ± 3.4 nM | Ki (HsADA; HsADA Ki^a (nM), slow onset equilibrium dissociation constant): 0.11 ± 0.02 nM | inhibition of human ADA (in words) (HsADA; mammalian ADAs): inhibiting mammalian ADAs with equivalent potency | potency relative to 5′-methylthiocoformycin (times more potent) (PfADA; PfADA): about 5 times | Ki (PfADA; PfADA Ki (nM), initial dissociation constant, 100 μM adenosine, pH 7.0, 30° C.): 0.68 ± 0.07 nM | Ki (PfADA; PfADA Ki^a (nM), slow onset equilibrium dissociation constant): 0.08 ± 0.02 nM | Ki (PfADA; tightest dissociation constants, slow onset inhibition, range over all three enzymes (BtADA, HsADA, PfADA)): 0.027 to 0.11 nM | Ki (BtADA; BtADA Ki (nM), initial dissociation constant, 100 μM adenosine, pH 7.0, 30° C., >10,000 = no inhibition at 10 μM): 1.1 ± 0.4 nM | Ki (BtADA; BtADA Ki^a (nM), slow onset equilibrium dissociation constant): 0.06 ± 0.01 nM | inhibition of bovine ADA (in words) (BtADA; mammalian ADAs): inhibiting mammalian ADAs with equivalent potency | parasitemia after 48 hours (P. falciparum [2]; [7]): 1% | parasites in the trophozoite form after 48 hours (P. falciparum [2]; [7]): 100% | IC50 (P. falciparum strain 3D7; Plasmodium falciparum, 3D7, Erythrocyte, 72 h): 3.5 nM

(8R)-8-hydroxy-3-(5-methylthio-β-D-ribofuranosyl)-3,6,7,8-tetrahydroimidazo[4,5-d][1,3]diazepine [5′-MeS-Coformycin (8)]
parasitemia after 48 hours (P. falciparum [2]; [7]): 1% | parasites in the trophozoite form after 48 hours (P. falciparum [2]; [7]): 100% | killing of P. falciparum growing in human erythrocytes (in words) (P. falciparum strain 3D7): kills P. falciparum growing in human erythrocytes | IC50 (P. falciparum strain 3D7; strain 3D7 in red blood cells, 72 hour assay, no hypoxanthine supplementation): 62 nM
